The text below walks through data of patent US5567684A, “Synthetic ganglioside derivatives” (The Regents of The University of California, priority 1994, dated 1996).

For assay [1], the system named is allogeneic immune response in popliteal lymph node. Kind of assay: In vivo assay of immunosuppressive activity: allogeneic immune response in draining popliteal lymph node after footpad injection. Further details: species or system C3H mice. The conditions noted are these: for lymph node mass, net increase / lymph node mass, stimulated / lymph node mass, unstimulated: day 4; for lymph node mass, stimulated: left footpad; for lymph node mass, unstimulated: right footpad.
Source text: In vivo Assay of Immunosuppressive Activity: Footpad injection of the synthetic ganglioside derivatives being studied and of the stimulant of the cellular immune response (allogeneic cells), is subsequently followed by harvest of the popliteal node and assessment of the node size, cell number, specific proliferation response and generation of specific cytotoxicity.
Mice: C3H (H-2^K) and BALB/c (H-2^d) mice are obtained at 6 weeks of age and used in these experiments at 7-12 weeks of age. The animals are murine virus free strains purchased from Charles River, Wilmington, Mass.
Preparation of stimulator cells: Spleens are removed aseptically and immediately placed in murine complete media [RPMI 1640 w/o L-glutamine (Whittaker Bioproducts, Walkersville, Md.) supplemented with 10% FCS; 1% of MEM non-essential amino acids (Cellgro), sodium pyruvate, L-glutamine, Penicillin 50 U/ml/Streptomycin 50 μg/ml and 10 mM Hepes Buffer (Whittaker Bioproducts)] then transferred to a 60×10 mm petri dish. A sterile single cell suspension is prepared by gently pressing the spleen onto a cell dissociation sieve (Sigma). Mononuclear cells are isolated by Ficoll-Hypaque density gradient separation, followed by lysis of erythrocytes (ACK lysing buffer pH 7.4). The cells are washed and their viability determined by trypan blue exclusion. Allogeneic (BALB/c) splenocytes are diluted to the appropriate concentration in saline and are injected into the footpad of C3H mice together with the synthetic ganglioside derivatives to be tested.
Preparation of synthetic ganglioside derivatives: Synthetic ganglioside derivatives are aliquoted in HPLC-grade chloroform:methanol (1:1), and dried in glass microvials. The synthetic ganglioside derivatives are then resuspended for injection in 0.9% NaCl, sonicated for 2 min in a Branson water bath sonicator.
Injections: Spleen cells or tumor cells and the synthetic ganglioside derivatives being studied are injected into the left hind footpad in a total volume of 30 μl.
Isolation of popliteal lymph nodes: Primed animals are killed by cervical dislocation on day 4, the popliteal lymph node draining the left and right footpads are removed aseptically, trimmed free of excess fat, weighted and placed on ice in tubes containing tissue culture medium. The nodes are then teased with a flat end of a 3 ml syringe to obtain a single cell suspension, which is washed in complete murine media containing 0.1% 2mercaptoethanol (Gibco, New York). The cells are then quantified and their viability determined by trypan blue exclusion. The cell concentration is adjusted to 2×10^6 cells/ml.
Cell cultures: 2×10^5 lymph node cells in 100 μl are cultured for 18 hours in complete medium with 0.5 μC ^3 H-thymidine incorporation quantified by β-scintillation counting as a measure of in vivo lymphocyte activation (50).
In this model, the immune response in a local microenvironment directed against allogeneic cells is assessed. Allogeneic (C3H mice) spleen cells were injected into the footpad of BALB/c mice and the draining popliteal lymph nodes were removed from the sacrificed mice four days later.

For assay [2], the system named is normal human peripheral blood mononuclear leukocytes. Kind of assay: cells. Type of assay: cell-based.
Setting [3] is: Table 4, mean ± SD of five mice, ganglioside 10 nmol coinjected, CSA 24 mg/kg/dose i.p. × 4 doses.
Where [4] appears, read: Homo sapiens, Leukocyte, 2.5 μM, read-out: Inhibition.
The mark [5] stands for this setting: Homo sapiens, Leukocyte, 5.0 μM, read-out: Inhibition.
[6] abbreviates: Homo sapiens, Leukocyte, read-out: inhibition of human lymphoproliferation.
Where [7] appears, read: Table 2, mean ± SD of five mice, dialkyl GM3 11 μg coinjected, CSA 24 mg/kg/day i.p. × 4 days.
The mark [8] stands for this setting: Table 1, mean ± SD of five mice, GM3 n=1 10 nmol coinjected, cyclosporin A 24 mg/kg/dose i.p. × 4 doses.

Entries after “also recorded” stand apart in the source; their conditions may differ. Where two headings read alike, the source gives them in different places. Bounds are passed on as bounds.

As to `CCCCCCCCCCCCCC=CC(O)C(COC1(C(=O)O)CC(O)C(NC(C)=O)C(C(O)C(O)CO)O1)NC(=O)CCCCCCCCCCCCCCCCC` [αGM5, (2S,3R,4E)-1-O-(5-acetamido-3,5-dideoxy-D-glycero-α- and β-D-galacto-f2-nonulopyranosylonicacid)-2-octadecanamido-4-octadecene-1,3-diol], the “lymph node mass, net increase” value in assay [1] (Table 4, ganglioside 10 nmol coinjected, CSA 24 mg/kg/dose i.p. × 4 doses) came to 0.58 mg. In assay [1] (setting [3]), the “lymph node mass, stimulated” value is listed as 1.40 ± 0.22 mg and the “lymph node mass, unstimulated” value was found to be 0.82 ± 0.26 mg. Besides, the “in vivo immunosuppression, in words” value in assay [1] (αGM5, compared to systemically administered cyclosporin A, Table 4) is “highly immunosuppressive in vivo”. For the same compound, in assay [1] (αGM5, Table 4), the “reduction in cellular immune response (increase in lymph mass caused by in vivo allostimulation)” value was 2/3. The “immunosuppressive activity in vitro, in words” value in assay [2] was “potent immunosuppressive agents”. For the same compound, the “[^3 H] Thymidine Uptake” value in assay [2] (2.5 μM) worked out at 0.1 CPM × 10^-3. The “[^3 H] Thymidine Uptake” value in assay [2] (5.0 μM) is 0.1 CPM × 10^-3. Moreover, in assay [2] (setting [4]), the inhibition at 2.5 µM is 99%. In assay [2] (setting [5]), the inhibition at 5 µM was 99%. Moreover, the IC90 in assay [2] (Homo sapiens, Leukocyte, read-out: ID90) is ~2.5 µM. In assay [2] (setting [6]), the inhibition at 0.0025 µM was 99% and the inhibition at 0.005 µM was 99%.
`CCCCCCCCCCCCCC=CC(O)C(COC1OC(CO)C(OC2OC(CO)C(O)C(OC3(C(=O)O)CC(O)C(NC(C)=O)C(C(O)C(O)CO)O3)C2O)C(O)C1O)NC(=O)CCCCCCCCCCCCC` (stereo not drawn) [GM3 d18:1-C14:0]: the “[^3 H] Thymidine Uptake” value is recorded as 4.6 CPM × 10^-3 in assay [2] (2.5 μM) and 0.8 CPM × 10^-3 in assay [2] (5.0 μM). Also, the inhibition at 2.5 µM in assay [2] (setting [4]) worked out at 53%. Besides, in assay [2] (setting [5]), the inhibition at 5 µM was 92%.
As for `CCCCCCCCCCCCCCC(CCCCCCCCCCCCCC)COC1OC(CO)C(OC2OC(CO)C(O)C(OC3(C(=O)O)CC(O)C(NC(C)=O)C(C(O)C(O)CO)O3)C2O)C(O)C1O` [dialkyl GM3, 2-(Tetradecylhexadecyl) O-(5-acetamido-3,5-dideoxy-D-glycero-D-galacto-2-nonulopyranosylonic acid)-(2→3)-O-β-D-galactopyranosyl-(1→4)-β-D-glucopyranoside], the “[^3 H]thymidine uptake (spontaneous lymphoproliferation)” value in assay [1] was 317 ± 45 cpm; in assay [1] (Table 2, 0.5 × 10^5 cells, mean ± SEM of three cultures) it was 107 ± 29 cpm; in assay [1] (Table 2, 1 × 10^5 cells, mean ± SEM of three cultures), 152 ± 15 cpm. In addition, the “[^3 H]thymidine uptake relative to control group” value in assay [1] (2×10^5 cells) is reported as 20%. Besides, the “lymph node mass, net increase” value in assay [1] (Table 2, dialkyl GM3 11 μg coinjected, CSA 24 mg/kg/day i.p. × 4 days) stood at 0.45 mg. Also, the “lymph node mass, stimulated” value in assay [1] (setting [7]) worked out at 1.86 ± 0.25 mg. Moreover, the “lymph node mass, unstimulated” value in assay [1] (setting [7]) was 1.41 ± 0.17 mg. Besides, in assay [1] (Table 2, dialkyl GM3 11 μg, CSA 24 mg/kg/day i.p. × 4 days), the “lymphocytes (total mononuclear leukocytes recovered from five stimulated popliteal lymph nodes)” value is 0.83 ×10^7. The “suppression of the immune response / proliferation, in words” value in assay [1] (Table 2, three cell densities for proliferation) was “marked suppression of the immune response; also recorded: markedly suppresses the proliferation”. Further, the “lymphocyte number as fraction of control group” value in assay [1] (control group 2.3×10^7 cells) is listed as ≤ 1/3. In addition, the “net increase of lymph node mass” value in assay [1] (dialkyl GM3 10 nmol or 11 μg/mouse coinjected, cyclosporin A systemic) is recorded as 0.45 mg. In addition, in assay [1] (five nodes from five mice), the “lymphocyte (mononuclear-leukocyte) number” value is recorded as 0.8 ×10^7. Moreover, the “immunosuppressive activity in vitro, in words” value in assay [2] is recorded as “marked immunosuppressive activity; also recorded: higher degree of inhibition of dialkyl GM3 than that of GM3 is readily observed”. The “potency relative to GM3 d18:1-C18:0” value in assay [2] was “four-fold”. In addition, the figures for the “[^3 H] Thymidine Uptake” value in assay [2] (2.5 μM) and in assay [2] (5.0 μM) were 0.7 CPM × 10^-3 and 0.3 CPM × 10^-3, respectively. In addition, in assay [2] (Homo sapiens, Leukocyte, 0-10 μM, read-out: ID50, inhibition of human lymphoproliferation), the IC50 turned out to be 0.2 µM. Besides, in assay [2] (setting [4]), the inhibition at 2.5 µM was determined as 93%. The inhibition at 5 µM in assay [2] (setting [5]) was 97%. For the same compound, the IC90 in assay [2] (Homo sapiens, Leukocyte, read-out: concentration at which 90% inhibition was observed, 0-20 μM) is < 7 µM.
In the case of `CCCCCCCCCCCCCC=CC(O)C(COC1(C(=O)O)CC(O)C(NC(C)=O)C(C(O)C(O)CO)O1)NC(=O)CCCCCCCCCCCCCCCCC` [βGM5, (2S,3R,4E)-1-O-(5-acetamido-3,5-dideoxy-D-glycero-α- and β-D-galacto-f2-nonulopyranosylonicacid)-2-octadecanamido-4-octadecene-1,3-diol], the “immunosuppressive activity in vitro, in words” value in assay [2] was “potent immunosuppressive agents”. Besides, the figures for the “[^3 H] Thymidine Uptake” value in assay [2] (2.5 μM) and in assay [2] (5.0 μM) were 1.4 CPM × 10^-3 and 0.3 CPM × 10^-3, respectively. Further, the inhibition at 2.5 µM in assay [2] (setting [6]) is 86%. Also, the inhibition at 5 µM in assay [2] (setting [6]) came out at 97%.
`CCCCCCCCCCCCCC=CC(O)C(COC1OC(CO)C(OC2OC(CO)C(O)C(OC3(C(=O)O)CC(O)C(NC(C)=O)C(C(O)C(O)CO)O3)C2O)C(O)C1O)NC(C)=O` (stereo not drawn) [GM3 n=1]: the “[^3 H]thymidine uptake (spontaneous lymphoproliferation)” value in assay [1] (Table 1, 2 × 10^5 cells/well, mean ± SD of three cultures) is listed as 329 ± 18 cpm. Besides, in assay [1] (Table 1, GM3 n=1 10 nmol, cyclosporin A 24 mg/kg/dose i.p. × 4 doses), the “lymphocytes (total mononuclear leukocytes recovered from five stimulated popliteal lymph nodes)” value was 1.03 × 10^7. In assay [1] (setting [8]), the “lymph node mass, stimulated” value came to 1.84 ± 0.30 mg; the “lymph node mass, net increase” value was found to be 0.56 ± 0.36 mg; the “lymph node mass, unstimulated” value was 1.29 ± 0.24 mg. In addition, the “P, difference in net increase of popliteal nodes between control and GM3 n = 1 treated groups” value in assay [1] (Table 1 footnote) was < 0.01. The “in vivo immunosuppressive activity compared with mixed human brain gangliosides” value in assay [1] (mouse, in vivo) is “much more active than the mixed brain gangliosides”. In assay [1] (single dose of GM3 n=1, Table 1), the “in vivo immunosuppressive activity compared with cyclosporin A” value is recorded as “almost as immunosuppressive as systemically administered cyclosporin A”. In assay [2], the “immunosuppressive activity compared with lyso GM3 (n=-1)” value is reported as “higher degree of immunosuppressive activity” and the “immunosuppressive activity compared with n = 17 or 23” value is on record as “greater immunosuppressive activity than glycosphingolipids wherein n is 17 or 23”. In assay [2] (5 μM), the “relative immunosuppressive activity (inhibition of human lymphoproliferative response)” value is on record as “highest immunosuppressive activity”. The IC50 in assay [2] (Homo sapiens, Leukocyte, read-out: ID50, inhibition of the human lymphoproliferative response) was 0.0002 µM.
